From patent publication US9295673B2, “Combination of mTOR inhibitors and P13-kinase inhibitors, and uses thereof” (Intellikine LLC, priority 2011, dated 2016)

What was measured:
[1] = test system: MDA-MB-361 cells; experiment: Cell proliferation (CellTiter-Glo) in MDA-MB-361 cells; format: cell-based, human; conditions: read-out: inhibition of cell proliferation, IC50
Protocol: (§1) Cells comprising one or more mutations in PI3Kα, including but not limited to breast cancer cells (e.g., MDA-MB-361, T47D, SKOV-3), and cells comprising one or more mutations in PTEN including but not limited to prostate cancer cells (e.g., PC3), are typically grown in cell growth media such as DMEM supplemented with fetal bovine serum and/or antibiotics, and grown to confluency. Cells are then treated with various concentrations of test compound for about 2 hours and subsequently lysed in cell lysis buffer. Lysates are subjected to SDS-PAGE followed by Western blot analysis to detect downstream signaling markers, including but not limited to pAKT(S473), pAKT(T308), pS6, and p4E-BP1.
Cells were seeded at 5000-10,000 per well in a 96 well flat bottom plate 90 ul growth media. Pre-diluted compound (at 10 times the final concentration) or DMSO (control) was added. The compounds were prepared such that the dose range extended from a final concentration of 30 μM to 14 nM via 3-fold serial dilutions (8 point curve). The final DMSO concentration was 0.3%. […] After 72 hours, proliferation was measured using CellTiter-Glo Luminescent reagent (Promega, PR-G7573). […] Contents were mixed for 30 minutes on an orbital shaker to lyse cells Luminescence was read on a PerkinElmer EnVision plate reader. […] Inhibition % was calculated as: 1−(cells+inhibitor)−background signal)/(cells+DMSO)−background signal)[…].

[2] = test system: breast cancer model; experiment: Preclinical breast cancer model (tumor weight / volume); format: in vivo; conditions: for tumor weight of a breast cancer model: 70 mg/kg Pan-PI3K inhibitor, 60 mg/kg compound A (FIG. 9 left)
[3] = test system: human tumor cell lines; experiment: Tumor cell line proliferation assay; format: cell-based; conditions: chart (FIG. 13)
Protocol: The ability of one or more subject compounds to inhibit tumor cell line proliferation is determined according to standard procedures known in the art. For instance, an in vitro cellular proliferation assay can be performed to measure the metabolic activity of live cells. The assay is performed in a 96 well microtiter plate using Alamar Blue reduction. Human tumor cell lines are obtained from ATCC (e.g., MCF7, U-87 MG, MDA-MB-468, PC-3), grown to confluency in T75 flasks, trypsinized with 0.25% trypsin, washed one time with Tumor Cell Media (DMEM+10% FBS), and plated in 90 ul at 5,000 cells/well in Tumor Cell Media. A compound disclosed herein is diluted in Tumor Cell Media and added in a 10 ul volume. Plates are incubated for 72 hours at 37 C and 5% CO2. A volume of 10 uL of Alamar Blue reagent is added to each well and plates are incubated for 3 hours at 37 C and 5% CO2. Alamar Blue fluoresce is read at 560Ex/590Em, and IC50 values are calculated using GraphPad Prism 5.

[4] = test system: MDA-MB-361 (PI3Kα/HER2 carcinoma) tumors; experiment: In vivo efficacy in MDA-MB-361 xenograft mouse model of breast cancer; parameters: species or system nude mice; conditions: 70 mg/kg Pan-PI3K inhibitor, 60 mg/kg compound A, FIG. 9 left panel
Protocol: Blood glucose was monitored periodically following administration of treatment.
Treatment of tumors (MDA-MB-361) with compounds was discontinued on Day 30. Tumors were measured every 2-5 days.

[5] = test system: pAKT(S473) in MDA-MB-361 cells; experiment: Western blot of Akt phosphorylation (pAKT) in MDA-MB-361 cells; format: cell-based, human; conditions: about 2 hours treatment, read-out: inhibition of pAKT, IC50
Protocol: as §1
MDA-MB-361(PIK3CA-E545K), MDA-MB-453 (PIK3CA-H1047R), and SK-Br3 (Her2) cells were treated with various concentrations of Compound A for 2 h and subsequently lysed. Lysates were subjected to SDS-PAGE followed by Western blot analysis as described above to detect downstream pathway markers.

[6] = test system: Akt, S6, 4EBP phosphorylation; experiment: Western blot of PI3K pathway phosphorylation (Akt, S6, 4EBP); format: cell-based
[7] = test system: pAKT(S473), pAKT(T308) in PC3 cells; experiment: Western blot of Akt phosphorylation (pAKT) in PC3 cells; format: cell-based; conditions: PC3 cells, about 2 hours treatment, read-out: inhibition of pAKT, IC50
Protocol: as §1

[8] = biological target: PI3K α (Homo sapiens, UniProt P42336); experiment: PI 3-Kinase (human) HTRF assay, PI3K α; conditions: chart (FIG. 6C)
[9] = test system: B cell function; experiment: B cell function in vivo (TNP-Ficoll immunization, antibody production); parameters: species or system mouse; conditions: mice immunized with TNP-Ficoll; 70 mg/kg GDC0941; 30, 60 or 120 mg/kg Compound A for 7 days (FIG. 8)
Protocol: Antibody production was measured as a percentage of control group that were treated with vehicle.

[10] = test system: 786-O human kidney carcinoma tumors; experiment: In vivo efficacy in 786-O xenograft model; parameters: species or system nude mice; conditions: oral, FIG. 6
[11] = test system: anti-TNP antibody production; experiment: TNP-Ficoll T-cell independent B-cell activation assay; format: in vivo; conditions: mice, 7 days; 70 mg/kg GDC0941; 30, 60, 120 mg/kg Compound A; ELISA; FIG. 8
Protocol: To test the effects of the compounds of the present invention in suppressing T cell independent antibody production, the TNP-Ficoll B-cell activation assay is used as described herein. Compounds of the present invention are dissolved in an appropriate vehicle (e.g. 5% 1-methyl-2-pyrrolidinone, 85% polyethylene glycol 400, 10% Solutor). Compounds are administered orally approximately 1 hr before TNP-Ficoll treatment to 4-10 week old mice. To study the effects of the compounds on B-cell activation, one set of mice are grouped according to the following table:
Four animals in group 1, and eight animals in groups 2 to 7 are euthanized in CO2 2 hours after the last compound administration on day 7. […]
Serum samples are analyzed for anti-TNP antibody titers by ELISA as described herein. […] HRP substrate (200 μl ABTS solution+30% H2O2+10 ml citrate buffer) is added to each well at 100 μl/well, incubated 2-20 minutes in the dark and the amount of anti-TNP IgG3 is determined spectrophotometrically at 405 nm. Similarly, anti-TNP IgM and total anti-TNP Ab are determined using anti-mouse IgM-HRP and anti-mouse Ig-HRP respectively.
Antibody production was measured using ELISA and plotted as as a percentage of control group that were treated with vehicle.

[12] = test system: marginal zone B cells; experiment: Marginal zone B cells in mouse spleen (FACS); conditions: 70 mg/kg Pan-PI3K inhibitor, 60 mg/kg Compound A; spleens harvested 2 hrs after last dose; FIG. 9
Protocol: The effect of the compounds on the localization/viability of marginal zone B cells in the spleen is also evaluated at the conclusion of treatment.
Spleens were harvested 2 hrs after the last dose, processed and stained with appropriate antibodies (marginal zone B cell: B220+; CD23−; CD21hi) and analyzed for staining on GUAVA EasyCyte FACS machine using Guava Cytosoft 5.2 software.

[13] = test system: MZB cells; experiment: MZB cells in mouse spleen; format: in vivo; conditions: 70 mg/kg Pan-PI3K inhibitor compared to 60 mg/kg Compound A (FIG. 9 right)

Chain of PI3K α (P42336 whole entry): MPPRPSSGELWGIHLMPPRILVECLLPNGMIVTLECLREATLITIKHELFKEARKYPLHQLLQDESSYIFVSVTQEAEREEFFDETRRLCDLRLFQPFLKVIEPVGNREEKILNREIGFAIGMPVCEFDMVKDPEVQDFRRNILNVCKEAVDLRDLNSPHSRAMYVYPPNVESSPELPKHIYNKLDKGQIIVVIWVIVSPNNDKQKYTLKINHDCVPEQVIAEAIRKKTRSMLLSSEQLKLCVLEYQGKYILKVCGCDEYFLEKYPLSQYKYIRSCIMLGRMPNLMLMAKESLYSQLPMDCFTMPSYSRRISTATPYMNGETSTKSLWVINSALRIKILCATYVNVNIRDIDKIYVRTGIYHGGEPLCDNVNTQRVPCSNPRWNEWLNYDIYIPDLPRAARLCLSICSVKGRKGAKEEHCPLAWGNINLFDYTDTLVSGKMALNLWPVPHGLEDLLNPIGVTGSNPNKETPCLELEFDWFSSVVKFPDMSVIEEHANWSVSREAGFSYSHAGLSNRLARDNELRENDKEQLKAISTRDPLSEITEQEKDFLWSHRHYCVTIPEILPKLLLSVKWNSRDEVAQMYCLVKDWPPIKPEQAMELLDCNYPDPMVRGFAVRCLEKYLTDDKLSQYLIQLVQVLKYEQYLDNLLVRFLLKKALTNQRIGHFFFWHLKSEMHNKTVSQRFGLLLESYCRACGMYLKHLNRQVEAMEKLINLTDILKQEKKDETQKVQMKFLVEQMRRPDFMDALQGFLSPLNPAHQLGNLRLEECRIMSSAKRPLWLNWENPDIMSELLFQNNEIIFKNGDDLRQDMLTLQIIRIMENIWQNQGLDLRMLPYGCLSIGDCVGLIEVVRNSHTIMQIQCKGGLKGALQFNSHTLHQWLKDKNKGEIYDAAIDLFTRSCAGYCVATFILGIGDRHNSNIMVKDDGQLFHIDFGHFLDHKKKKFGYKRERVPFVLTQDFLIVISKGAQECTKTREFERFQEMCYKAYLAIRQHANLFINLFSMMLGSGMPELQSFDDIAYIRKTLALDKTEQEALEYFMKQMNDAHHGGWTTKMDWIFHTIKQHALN
Chain of PI3K α (P27986 whole entry partner): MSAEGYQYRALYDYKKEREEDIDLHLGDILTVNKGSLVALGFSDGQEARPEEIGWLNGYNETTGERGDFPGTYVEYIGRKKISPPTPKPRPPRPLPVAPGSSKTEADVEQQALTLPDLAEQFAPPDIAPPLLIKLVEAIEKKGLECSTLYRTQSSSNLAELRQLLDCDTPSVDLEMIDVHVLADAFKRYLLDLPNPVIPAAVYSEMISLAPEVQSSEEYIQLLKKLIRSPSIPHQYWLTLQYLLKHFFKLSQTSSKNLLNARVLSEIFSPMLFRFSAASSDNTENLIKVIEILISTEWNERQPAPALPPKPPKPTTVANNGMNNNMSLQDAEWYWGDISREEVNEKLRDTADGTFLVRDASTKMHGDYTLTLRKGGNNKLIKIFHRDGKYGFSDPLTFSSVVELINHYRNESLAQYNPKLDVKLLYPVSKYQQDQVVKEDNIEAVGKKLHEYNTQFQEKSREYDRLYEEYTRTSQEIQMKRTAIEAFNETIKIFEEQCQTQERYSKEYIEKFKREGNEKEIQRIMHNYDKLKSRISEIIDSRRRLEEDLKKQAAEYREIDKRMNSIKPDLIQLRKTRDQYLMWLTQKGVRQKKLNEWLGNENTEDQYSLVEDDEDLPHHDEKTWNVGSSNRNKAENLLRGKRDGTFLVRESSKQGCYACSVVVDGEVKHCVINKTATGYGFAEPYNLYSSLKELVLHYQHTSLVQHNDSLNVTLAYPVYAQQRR

Nc1nc2cc(-c3ccc4ncc(C(=O)N5CCOCC5)n4c3)ccc2o1 [Compound A]
IC50 [1]: ~1.9 µM | tumor weight of a breast cancer model [2]: reduction in tumor weight | tumor weight in a preclinical breast cancer model ([2]; combined treatment with Compound A and Compound B (FIG. 2)): synergistic effect | reducing tumor volume of a preclinical breast cancer model ([2]; combined treatment with Compound A and rapamycin (FIG. 4)): synergistic effect | proliferation of tumor cells harboring PI3K α mutations [3]: preferentially inhibits | tumor weight [4]: reduction in tumor weight | IC50 [5]: ~1 µM | inhibition of the PI3K pathway in cell lines with elevated PI3K α activity ([6]; MDA-MB-361, MDA-MB-453, SKBr3 breast cancer cells, western blot (FIG. 11)): inhibition | inhibition of Akt, S6, and 4EBP phosphorylation ([6]; PTEN mutant cells, western blot (FIG. 6B)): not | Akt phosphorylation at serine 473 ([6]; PTEN-mutant cell line (FIG. 12B)): reduced inhibition | downregulating Akt and S6 phosphorylation ([6]; combined treatment with Compound A and Compound B, western blot (FIG. 3)): synergistic effect | Akt phosphorylation at serine 473 ([6]; western blot (FIG. 12A)): inhibition | IC50 [7]: ~10 µM | specificity in inhibiting PI3K α over mTOR and other PI3K isoforms [8]: specificity | B cell function in vivo (antibody production) [9]: not | inhibition of kinase activity (downstream markers) and tumor growth [10]: decreased activity by comparison to that seen in the MDA derived tumors

CS(=O)(=O)N1CCN(Cc2cc3nc(-c4cccc5[nH]ncc45)nc(N4CCOCC4)c3s2)CC1 [Pan-PI3K inhibitor, GDC0941, reference compound]
tumor weight of a breast cancer model [2]: reduction in tumor weight | B cell function in vivo (antibody production after TNP-Ficoll) [11]: blocks B cell function in vivo | presence (localization/viability) of marginal zone B cells in spleen [12]: reduced presence of MZB cells | tumor weight [4]: reduction in tumor weight | presence of MZB cells in mouse spleen [13]: reduced presence | B cell function in vivo (antibody production) [9]: blocks
